In assay [1] the target is purified human autoBACE-2 (Homo sapiens (Human), UniProt Q9Y5Z0). Description: BACE-2 Assay (BACE-HTRF assay). The class given is biochemical. The note with it: Ki calculated from IC50 using the Cheng-Prusoff equation; QSY7-EISEVNLDAEFC-Eu-amide substrate, pH 5.0; read-out: BACE2 Ki. How it is done: Inhibitor IC50s at purified human autoBACE-2 are determined in a time-resolved endpoint proteolysis assay that measures hydrolysis of the QSY7-EISEVNLDAEFC-Eu-amide FRET peptide substrate (BACE-HTRF assay). BACE-mediated hydrolysis of this peptide results in an increase in relative fluorescence (RFU) at 620 nm after excitation with 320 nm light. Inhibitor compounds, prepared at 3× the desired final concentration in 1×BACE assay buffer (20 mM sodium acetate pH 5.0, 10% glycerol, 0.1% Brij-35) supplemented with 7.5% DMSO are pre-incubated with an equal volume of autoBACE-2 enzyme diluted in 1×BACE assay buffer (final enzyme concentration 1 nM) in black 384-well NUNC plates for 30 minutes at 30° C. The assay is initiated by addition of an equal volume of the QSY7-EISEVNLDAEFC-Eu-amide substrate (200 nM final concentration, Km=8 μM […] for autoBACE-2) prepared in 1×BACE assay buffer supplemented with 7.5% DMSO and incubated for 90 minutes at 30° C. DMSO is present at 5% final concentration in the assay. Following laser excitation of sample wells at 320 nm, the fluorescence signal at 620 nm is collected for 400 ms following a 50 μs delay on a RUBYstar HTRF plate reader (BMG Labtechnologies). Raw RFU data is normalized to maximum (1.0 nM BACE/DMSO) and minimum (no enzyme/DMSO) RFU values. IC50s are determined by nonlinear regression analysis (sigmoidal dose response, variable slope) of percent inhibition data with minimum and maximum values set to 0 and 100 percent respectively. Similar IC50s are obtained when using raw RFU data. The Ki values are calculated from the IC50 using the Cheng-Prusoff equation.
Chain of purified human autoBACE-2 (Q9Y5Z0 63-473): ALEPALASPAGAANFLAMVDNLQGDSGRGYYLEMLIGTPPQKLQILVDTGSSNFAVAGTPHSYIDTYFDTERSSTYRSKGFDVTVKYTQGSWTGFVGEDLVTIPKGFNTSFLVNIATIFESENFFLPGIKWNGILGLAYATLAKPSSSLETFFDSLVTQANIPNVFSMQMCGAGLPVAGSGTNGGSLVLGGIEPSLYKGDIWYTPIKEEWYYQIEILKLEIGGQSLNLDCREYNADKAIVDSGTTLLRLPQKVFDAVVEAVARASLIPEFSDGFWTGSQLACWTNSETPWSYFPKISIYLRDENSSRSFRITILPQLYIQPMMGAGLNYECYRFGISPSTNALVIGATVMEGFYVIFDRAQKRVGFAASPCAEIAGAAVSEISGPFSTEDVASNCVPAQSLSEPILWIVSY

The target of assay [2] is soluble human BACE1 catalytic domain (Homo sapiens (Human), UniProt P56817). Description: BACE1 HTRF FRET Assay. The assay is classed as biochemical. The note with it: Ki calculated from IC50 using the Cheng-Prusoff equation; QSY7-APPswe-Eu substrate, pH 5.0. The source says: Reagents: Na^+-Acetate pH 5.0; 1% Brij-35; Glycerol; Dimethyl Sulfoxide (DMSO);
Chain of soluble human BACE1 catalytic domain (P56817 75-416): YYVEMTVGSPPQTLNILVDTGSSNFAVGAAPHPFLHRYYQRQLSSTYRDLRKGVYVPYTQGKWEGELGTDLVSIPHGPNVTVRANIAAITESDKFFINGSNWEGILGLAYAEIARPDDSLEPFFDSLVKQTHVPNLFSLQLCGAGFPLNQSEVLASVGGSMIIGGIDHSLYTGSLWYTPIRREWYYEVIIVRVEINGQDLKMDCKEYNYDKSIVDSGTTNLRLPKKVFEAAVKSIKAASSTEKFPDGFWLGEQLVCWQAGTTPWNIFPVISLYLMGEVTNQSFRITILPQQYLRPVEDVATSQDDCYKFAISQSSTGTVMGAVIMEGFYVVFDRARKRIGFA
A homogeneous time-resolved FRET assay can be used to determine IC50 values for inhibitors of the soluble human BACE1 catalytic domain. This assay monitors the increase of 620 nm fluorescence that resulted from BACE1 cleavage of an APPswedish APP^swe mutant peptide FRET substrate (QSY7-[…]-Europium-amide). This substrate contains an N-terminal QSY7 moiety that serves as a quencher of the C-terminal Europium fluorophore (620 nm Em). […] Inhibition of BACE1 cleavage of the QSY7-APP^swe-Eu substrate by inhibitors is manifested as a suppression of 620 nm fluorescence.
Reactions are initiated by addition of 10 μl of 600 nM QSY7-APP^swe-Eu substrate (200 nM final) to give a final reaction volume of 30 μl in a 384 well Nunc HTRF plate. The reactions are incubated at 30° C. for 1.5 hours. The 620 nm fluorescence is then read on a Rubystar HTRF plate reader (BMG Labtechnologies) using a 50 millisecond delay followed by a 400 millisecond acquisition time window. Inhibitor IC50 values are derived from non-linear regression analysis of concentration response curves.

One may read the Ki as a measure of affinity in units of concentration, obtained from inhibition or displacement. Consider `COc1cnc(C(=O)Nc2ccc(F)c([C@]3(C)CS(=O)(=O)C4(CCN(C)CC4)C(=N)N3)c2)c(C)n1` [Example 34, N-{4-fluoro-3-[(3R)-5-imino-3,9-dimethyl-1,1-dioxido-1-thia-4,9-diazaspiro[5.5]undec-3-yl]phenyl}-5-methoxy-3-methylpyrazine-2-carboxamide], for which the Ki is 23 nM in assay [1] and 37 nM in assay [2].

Regarding `COc1cnc(C(=O)Nc2ccc(F)c([C@]3(C)CS(=O)(=O)C4(CN(C)C4)C(=N)N3)c2)c(C)n1` [Example 10, N-{4-fluoro-3-[(7R)-9-imino-2,7-dimethyl-5,5-dioxido-5-thia-2,8-diazaspiro[3.5]non-7-yl]phenyl}-5-methoxy-3-methylpyrazine-2-carboxamide], the inhibition constant Ki in assay [1] was 4.9 nM; in assay [2], 10.4 nM.

Take `COc1ccc(C(=O)Nc2ccc(F)c([C@]3(C)CS(=O)(=O)C4(CN(C)C4)C(=N)N3)c2)nc1` [Example 3, N-{4-fluoro-3-[(7R)-9-imino-2,7-dimethyl-5,5-dioxido-5-thia-2,8-diazaspiro[3.5]non-7-yl]phenyl}-5-methoxypyridine-2-carboxamide]: the Ki is 1.6 nM in assay [1] and 6.3 nM in assay [2].

Turning to `CNC(=O)N1CC2(C1)C(=N)N[C@](C)(c1cc(NC(=O)c3ccc(OC)cn3)ccc1F)CS2(=O)=O` [Example 39, (R)-7-(2-fluoro-5-(5-methoxypicolinamido)phenyl)-9-imino-N,7-dimethyl-5-thia-2,8-diazaspiro[3.5]nonane-2-carboxamide 5,5-dioxide], the Ki was 1.7 nM in assay [1] and 7.3 nM in assay [2].

Regarding `COc1cnc(C(=O)Nc2ccc(F)c([C@]3(C)CS(=O)(=O)C4(CN(C)C4)C(=N)N3)c2)cn1` [Example 4, N-{4-fluoro-3-[(7R)-9-imino-2,7-dimethyl-5,5-dioxido-5-thia-2,8-diazaspiro[3.5]non-7-yl]phenyl}-5-methoxypyrazine-2-carboxamide], the Ki was 6.2 nM in assay [1] and 7.9 nM in assay [2].

As to `CN1CC2(C1)C(=N)N[C@](C)(c1cc(NC(=O)c3ccc(Cl)cn3)ccc1F)CS2(=O)=O` [Example 5, 5-chloro-N-{4-fluoro-3-[(7R)-9-imino-2,7-dimethyl-5,5-dioxido-5-thia-2,8-diazaspiro [3.5]non-7-yl]phenyl}pyridine-2-carboxamide], the results for the inhibition constant Ki in assay [1] and in assay [2] were 0.4 nM and 2.2 nM, respectively.

As for `CC#CCOc1ccc(C(=O)Nc2ccc(F)c([C@]3(C)CS(=O)(=O)C4(CN(C)C4)C(=N)N3)c2)nc1` [Example 12, 5-(but-2-yn-1-yloxy)-N-{4-fluoro-3-[(7R)-9-imino-2,7-dimethyl-5,5-dioxido-5-thia-2,8-diazaspiro[3.5]non-7-yl]phenyl}pyridine-2-carboxamide], the inhibitory constant (Ki) in assay [1] was 30 nM; in assay [2], 2.3 nM.

With `CN1CCC2(CC1)C(=N)N[C@](C)(c1cc(NC(=O)c3ccc(OC(F)F)cn3)ccc1F)CS2(=O)=O` [Example 31, 5-(difluoromethoxy)-N-{4-fluoro-3-[(3R)-5-imino-3,9-dimethyl-1,1-dioxido-1-thia-4,9-diazaspiro[5.5]undec-3-yl]phenyl}pyridine-2-carboxamide], the Ki in assay [1] is 27 nM; in assay [2], 11 nM.

Turning to `CN1CC2(C1)C(=N)N[C@](C)(c1cc(NC(=O)c3ncc(C#N)cc3C(F)F)ccc1F)CS2(=O)=O` [Example 12b, 5-cyano-3-(difluoromethyl)-N-{4-fluoro-3-[(7R)-9-imino-2,7-dimethyl-5,5-dioxido-5-thia-2,8-diazaspiro [3.5]non-7-yl]phenyl}pyridine-2-carboxamide], the figures for the inhibition constant Ki in assay [1] and in assay [2] were 0.5 nM and 1.4 nM, respectively.

Take `CN1CCC2(CC1)C(=N)N[C@](C)(c1cc(NC(=O)c3ccc(OC(F)(F)F)cn3)ccc1F)CS2(=O)=O` [Example 30]: the results for the Ki in assay [1] and in assay [2] were 52 nM and 15 nM, respectively.

Regarding `COc1ccc(C(=O)Nc2ccc(F)c([C@]3(C)CS(=O)(=O)C4(CCN(C)CC4)C(=N)N3)c2)nc1` [Example 27, N-{4-fluoro-3-[(3R)-5-imino-3,9-dimethyl-1,1-dioxido-1-thia-4,9-diazaspiro[5.5]undec-3-yl]phenyl}-5-methoxypyridine-2-carboxamide], the values for the inhibitory constant (Ki) in assay [1] and in assay [2] were 24 nM and 35 nM, respectively.

`Cc1cc(C#N)cnc1C(=O)Nc1ccc(F)c([C@]2(C)CS(=O)(=O)C3(CCN(C)CC3)C(=N)N2)c1` [Example 35, 5-cyano-N-{4-fluoro-3-[(3R)-5-imino-3,9-dimethyl-1,1-dioxido-1-thia-4,9-diazaspiro[5.5]undec-3-yl]phenyl}-3-methylpyridine-2-carboxamide]: the Ki is 24 nM in assay [1] and 35 nM in assay [2].

Consider `CN1CC2(C1)C(=N)N[C@](C)(c1cc(NC(=O)c3ncc(C#N)cc3C3CC3)ccc1F)CS2(=O)=O` [Example 12a, 5-cyano-3-cyclopropyl-N-{4-fluoro-3-[(7R)-9-imino-2,7-dimethyl-5,5-dioxido-5-thia-2,8-diazaspiro [3.5]non-7-yl]phenyl}pyridine-2-carboxamide], for which the Ki in assay [1] is 0.8 nM; in assay [2] it was 1.3 nM.

For `COc1ccc(C(=O)Nc2ccc(F)c([C@]3(C)CS(=O)(=O)C4(CN(C(C)=O)C4)C(=N)N3)c2)nc1` [Example 37, (R)—N-(3-(2-acetyl-9-imino-7-methyl-5,5-dioxido-5-thia-2,8-diazaspiro[3.5]nonan-7-yl)-4-fluorophenyl)-5-methoxypicolinamide], the Ki in assay [1] is 1.1 nM; in assay [2] it was 1.6 nM.

As for `COc1cnc(C(=O)Nc2ccc(F)c([C@]3(C)CS(=O)(=O)C4(CCN(C)CC4)C(=N)N3)c2)cn1` [Example 28, N-{4-fluoro-3-[(3R)-5-imino-3,9-dimethyl-1,1-dioxido-1-thia-4,9-diazaspiro[5.5]undec-3-yl]phenyl}-5-methoxypyrazine-2-carboxamide], the results for the inhibition constant (Ki) in assay [1] and in assay [2] were 29 nM and 19 nM, respectively.
